# Experiments:
# [1] = MTT viability assay, 24 h; type: cell-based; conditions: human, normal osteoblasts hFOB 1.19 cells, 2% FBS, read-out: CC50 (µM ± SD) hFOB 1.19
# Description: One of the features specific totumor cells is the unlimited potential for proliferation. […] To this end, the assay conditions were established suchthat they encourage the proliferation of OS cells, i.e., the cell cultures at low density were incubated with compounds diluted in the growth medium (10% FBS) for an extended time of 96 h. Additionally, cisplatin, i.e., a common cytostatic used in osteosarcoma treatment, was included as a positive control in this study. Moreover, since the new generation of anti-cancer compounds is highly desired to be inert (non-cytotoxic) towards normal cells, the influence of compounds 1–7 on the viability of human normal cells (osteoblasts hFOB 1.19 and colon fibroblasts CCD-18Co) was also determined.To this end, the assay conditions were established such that they restrict the proliferation of OS cells and to establish whether the compounds have cytotoxic potential, i.e., the cell cultures were incubated with compounds diluted in the medium with a reduced concentration of FBS (2%) for a shortened time of 24 h. […] However, this activity varied depending on both the types of the compounds and the osteosarcoma cell lines (Table 4).
# The anti-proliferative activity of compounds 1–7 against the HOS and Saos-2 osteosarcoma cells and the viability of the human normal hFOB 1.19 and CCD-18Co cells were screened by means of the MTT method. This method is commonly used to assess cell viability and proliferation or to determine the cytotoxicity of any compounds. It is a reliable method for this purpose because it is based on measurement of the level reduction in MTT dye to formazan byNAD(P)H-dependent oxidoreductase enzymes of metabolically active cells.
# To assess the viability of human normal cells, confluent hFOB 1.19 (3 × 10^5 cells/mL) and CCD-18Co (1 × 10^5 cells/mL) cells seeded in 96-well plates (Nunc) were incubated with compounds 1–7 at concentrations of 3.125, 6.25, 12.5, 25, 50, 100 and 200 µM prepared in medium with 2% FBS (maintaining medium) for 24 h. The control was constituted by the untreated cells (0 µM). Next, the MTT assay was carried out as described previously.
# The results of these assays were calculated as a percent of the untreated cells (100%; control). Then, the IC50 (concentration resulting in 50% inhibition of proliferation) and CC50 (concentration resulting in a 50% decrease in viability) values were calculated from a non-linear regression (log(inhibitor) vs. normalized response-variable slope) using GraphPad Prism 5.0 (GraphPAD Software Inc., San Diego, CA, USA). The IC50 and CC50 results were presented as themean ± SD of at least three experiments. In the case of the BrdU assay, the results were presented as a percent of untreated cells (100%; control).
# [2] = tested on: active caspase 3 in HOS cells; assay: Active caspase 3 assay (flow cytometry); type: cell-based, human; conditions: 72 h
# Description: (§1) The level of active executor caspase 3 and initiator caspase 9 was determined to examine whether compounds 4 and 6 induced apoptosis in the HOS and Saos-2 cells. The influence of compounds 4 and 6 on HOS and Saos-2 were determined with the caspase 3 assay, whereas the influence of compound 6 on the HOS cells was investigated with the caspase 9 assay. In both assays, the osteosarcoma cells (3.0 × 10^5 cells/mL) were seeded in 6-well plates. The cells were treated with compounds 4 and 6 at concentrations of 12.5, 25, 50 µM and 20, 40, 80 µM as well as 15, 30, 60 µM and 21.25, 42.5, 85 µM for 72 h, respectively. The solutions of the compounds were prepared in a medium with 2% FBS. […] Next, floating and adherent cells were harvested and subjected to further steps of the staining procedures according to the manufacturer’s instruction. The level of active caspase 3 and caspase 9 was determined using the PE Active Caspase-3 Apoptosis Kit (BD Pharmingen^TM) and the CaspaTag^TM Caspase-9 in Situ Assay Kit (Millipore, Darmstadt, Germany), respectively. The number of stained cells (active caspase 3- or 9-positive cells) was measured using FACS Calibur, and the obtained data were analyzed using Cell Quest Pro Version 6.0. for the Macintosh operating system (BD Pharmingen™). The presented results were calculated as a percent of cells with either active caspase 3 or 9 among all the analyzed cells.
# [3] = tested on: active caspase 3 in Saos-2 cells; assay: Active caspase 3 assay (flow cytometry); type: cell-based, human; conditions: 72 h
# Description: as §1
# NEP (neprilysin) = target: T1, NEP (neprilysin) (Homo sapiens, UniProt P08473); assay: Neutral endopeptidase activity assay (fluorometric); type: biochemical; conditions: vs control
# T1 construct: purchased BioVision, Waltham, MA, USA
# Description: The NEP activity in the presence of compounds 4 and 6 was determined using the Neprilysin Activity Assay Kit (BioVision, Waltham, MA, USA) according to the manufacturer’s instructions. The measurement is based on the ability of active neprilysin to cleave a synthetic substrate (Abz-based peptide) to release a fluorophore, which can be easily quantified using a fluorescence microplate reader. Briefly, pure neprilysin (5µLof stock solution) was incubated with solutions of the tested compounds (at least 4 concentrations in the range of 0.01–50 µM) for 10 min at 37 °C. The reaction was started by adding the substrate solution, and the final sample volume was 100µL. Fluorescence was measured (Ex/Em = 330/430nm) in the kinetic mode at 37 °C for 1–2 h. The same procedure was used to measure the control and background sample. Thiorphan was used as a reference NEP inhibitor. NEP activity was determined with the prepared Abz standard curve and expressed in µU/mL. The experiments were performed at least in triplicates, and the graphs represent mean ±SD values.
# HOS cells = assay: Cell cycle assay (PI/RNase, flow cytometry); type: cell-based, human; conditions: 72 h
# Description: (§2) To examine the influence of compounds 4 and 6 on the distribution of cells in the cell cycle phases, the HOS and Saos-2 osteosarcoma cells (3.0 × 10^4 cells/mL) were seeded into 6-well plates (Nunc) and incubated with compounds 4 and 6 at concentrations of 12.5, 25, 50 µM and 20, 40, 80 µM as well as 15, 30; 60 µM and 21.25, 42.5, 85 µM, respectively. The compound solutions were prepared in a medium with 10% FBS. The control was constituted by the untreated cells (0 µM). The cells were treated for 72 h. Next, floating and adherent cells were harvested and subjected to further steps of the PI staining procedure (PI/RNase Staining Buffer, BD Pharmingen^TM, BD Biosciences, San Jose, CA, USA) previously described. The PI fluorescence intensity was measured using FACS Calibur (BD Pharmingen^TM), and the obtained data were analyzed using Cell Quest Pro Version 6.0. for the Macintosh operating system (BD Pharmingen^TM). The presented results were calculated as a percent of cells in the respective cell cycle phases (sub-G1, G0/G1, S and G2) among all the analyzed cells.
# Saos-2 cells = assay: Cell cycle assay (PI/RNase, flow cytometry); type: cell-based, human; conditions: 72 h
# Description: as §2
# T1 sequence (P08473 whole entry): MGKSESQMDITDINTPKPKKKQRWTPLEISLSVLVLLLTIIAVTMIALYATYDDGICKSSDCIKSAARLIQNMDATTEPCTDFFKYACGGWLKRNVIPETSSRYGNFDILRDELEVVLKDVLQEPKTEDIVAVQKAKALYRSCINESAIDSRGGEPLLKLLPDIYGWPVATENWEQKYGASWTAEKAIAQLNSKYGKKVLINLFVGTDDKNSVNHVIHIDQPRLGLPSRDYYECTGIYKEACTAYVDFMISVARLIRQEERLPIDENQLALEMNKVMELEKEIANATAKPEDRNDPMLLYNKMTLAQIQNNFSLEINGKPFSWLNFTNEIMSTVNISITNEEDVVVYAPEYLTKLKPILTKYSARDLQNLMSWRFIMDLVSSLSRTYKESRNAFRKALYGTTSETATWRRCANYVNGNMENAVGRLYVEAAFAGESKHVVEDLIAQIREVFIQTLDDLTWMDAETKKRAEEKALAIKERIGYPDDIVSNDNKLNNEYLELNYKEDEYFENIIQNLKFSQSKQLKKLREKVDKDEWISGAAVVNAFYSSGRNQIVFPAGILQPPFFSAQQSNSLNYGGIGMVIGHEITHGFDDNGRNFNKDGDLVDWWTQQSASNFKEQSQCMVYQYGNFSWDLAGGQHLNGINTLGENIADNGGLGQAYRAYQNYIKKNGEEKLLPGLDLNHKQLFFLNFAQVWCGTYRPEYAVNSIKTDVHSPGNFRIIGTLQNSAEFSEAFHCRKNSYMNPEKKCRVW
inhibition at 0.1 µM (NEP (neprilysin); 0.1 µM),inhibition at 0.5 µM (NEP (neprilysin); 0.5 µM),inhibition at 10 µM (NEP (neprilysin); 10 µM),inhibition at 50 µM (NEP (neprilysin)),SMILES,CC50 at 24 h [1],increase in active caspase 3 vs untreated cells ([2]; 25 µM),increase in active caspase 3 vs untreated cells ([2]; 50 µM),"increase in active caspase 3 vs untreated cells ([3]; Saos-2, 30 µM)","increase in active caspase 3 vs untreated cells ([3]; Saos-2, 60 µM)",number of cells at G0/G1 phase (HOS cells; 25 µM and 50 µM),number of cells at sub-G1 and G2 phases (HOS cells; 25 µM and 50 µM),"number of cells at sub-G1 phase (Saos-2 cells; Saos-2, 30 µM and 60 µM)",increase in active caspase 3 vs untreated cells ([2]; 40 µM),increase in active caspase 3 vs untreated cells ([2]; 80 µM),"increase in active caspase 3 vs untreated cells ([3]; Saos-2, 42.5 µM)","increase in active caspase 3 vs untreated cells ([3]; Saos-2, 85 µM)",number of cells at G0/G1 phase (HOS cells; 40 µM and 80 µM),number of cells at sub-G1 and G2 phases (HOS cells; 40 µM and 80 µM),"number of cells at sub-G1 phase (Saos-2 cells; Saos-2, 42.5 µM and 85 µM)"
~40%,~50%,~50%,~50%,"[BH3-][P+](OC(C)C)(OC(C)C)C(Nc1ccc(Br)cc1)c1ccc([N+](=O)[O-])cc1 (stereo not drawn) [Compound 4, [1-(N-p-bromophenylamino)]-1-(p-nitrophenyl)methylphosphonousacid-borane diisopropyl ester]",189 ± 36.4 µM,approx. 5%,~6%,approx. 5%,~10%,significant decrease,statistically significant increase,significant increase,,,,,,,
,,,~30%,"[BH3-][P+](OC(C)C)(OC(C)C)C(Nc1ccc(C)cc1)c1ccccc1 (stereo not drawn) [Compound 6, [1-(N-p-tolylamino)]-1-phenylmethylphosphonous acid-borane diisopropyl ester]",266 ± 110 µM,,,,,,,,approx. 9%,~20%,approx. 4%,~6%,significant decrease,statistically significant increase,significant increase
